Measured values taken from PMC12503909, “C1′‐Branched Acyclic Nucleoside Phosphonates as Inhibitors of Plasmodium Falciparum 6‐Oxopurine Phosphoribosyltransferase” (Chemmedchem, 2025).

Tests used:
[1] = system: CCRF-CEM; assay: Cytotoxicity of the prodrug in human cells (CellTiter-Glo 2.0), CCRF-CEM; assay type: cell-based; settings: 10 µM, versus untreated control; mean ± SD
Experimental: (§1) Compound cytotoxicity was evaluated in nontumor human dermal fibroblasts (NHDF), CCRF‐CEM, HL‐60, HeLa, and HepG2 cells. All cell lines were obtained from ATCC (Manassas, VA, USA). The cytotoxicity was assayed using CellTiter‐Glo 2.0 detection reagent (Promega, Madison, USA) according to the manufacturer's protocol. The concentration of prodrug used in this assay was 10 μM. This concentration was chosen as it would more accurately reflect the expected concentration in an in vitro assessment.

[2] = system: HepG2; assay: Cytotoxicity of the prodrug in human cells (CellTiter-Glo 2.0), HepG2; assay type: cell-based; settings: 10 µM, versus untreated control; mean ± SD
Experimental: as §1

[3] = system: HL-60; assay: Cytotoxicity of the prodrug in human cells (CellTiter-Glo 2.0), HL-60; assay type: cell-based; settings: 10 µM, versus untreated control; mean ± SD
Experimental: as §1

[4] = system: NHDF; assay: Cytotoxicity of the prodrug in human cells (CellTiter-Glo 2.0), NHDF; assay type: cell-based; settings: 10 µM, versus untreated control; mean ± SD
Experimental: as §1

[5] = system: HeLa; assay: Cytotoxicity of the prodrug in human cells (CellTiter-Glo 2.0), HeLa; assay type: cell-based; settings: 10 µM, versus untreated control; mean ± SD
Experimental: as §1

[6] = system: P. falciparum D6; assay: In vitro antimalarial activity, 3H-hypoxanthine growth inhibition assay, D6 line; assay type: cell-based, Plasmodium falciparum; settings: Plasmodium falciparum, D6, Erythrocyte, 96 h, Pf infected erythrocytes, D6 strain sensitive to chloroquine, mean ± SD of three independent experiments
Experimental: (§2) The IC50 values were determined as previously described.^[ [32] ^] P. falciparum D6 (Sierra‐Leone) laboratory line, sensitive to most antimalarial drugs, and W2 (Indochina) line, resistant to chloroquine and pyrimethamine, were maintained as previously described^[ [33] ^] in medium consisted of 10.4 g L^−1 RPMI‐1640‐LPLF powder (Gibco BRL), 5.97 g L^−1 HEPES buffer (MP Biomedicals, USA), 2.0 g L^−1 d‐glucose (BDH chemicals, Australia), 0.05 g L^−1 hypoxanthine (Sigma, USA) and 40 mg L^−1 gentamycin (Pfizer, Australia), supplemented with 0.21% NaHCO3 and 10% human plasma prior to use. Red blood cells O (Rh+) type were obtained from the Australian Red Cross Blood Service and added to 4% haematocrit. Cultures were routinely synchronized using D‐sorbitol.^[ [34] ^] To evaluate the antimalarial activity of the ANPs, the ^3H‐hypoxanthine growth inhibition assay was utilized, where the uptake of ^3H‐hypoxanthine by malaria parasites is used as a surrogate marker for parasite growth. For these assays, stock solutions of the tested compounds were made to concentrations of 20–40 mM in DMSO or water and subsequently diluted in hypoxanthine‐free complete media prior to assay. The assays (in 96‐well plate format) were initiated when most parasites (> 90%) were at the early trophozoite (ring) stage. Parasite cultures (100 μL per well) at 0.5% initial parasitemia and 2% hematocrit in hypoxanthine‐free RPMI1640‐LPLF medium were exposed to ten twofold serial dilutions of the compounds and chloroquine (reference drug) for 96 h, with ^3H‐hypoxanthine (0.2 μCi well^−1) added ≈48 h after the beginning of the experiment.
(§3) The ^3H‐hypoxanthine incorporation data were analyzed, and sigmoidal growth inhibition curves were produced by nonlinear regression analysis of the ^3H‐hypoxanthine incorporation data versus log‐transformed concentrations of the compounds using Graphpad Prism V5.0 software (GraphPad Software Inc. USA). […] The IC50 values were based on three independent experiments, with mean ± SD calculated.

[7] = system: P. falciparum W2; assay: In vitro antimalarial activity, 3H-hypoxanthine growth inhibition assay, W2 line; assay type: cell-based, Plasmodium falciparum; settings: Plasmodium falciparum, W2, Erythrocyte, 96 h, Pf infected erythrocytes, W2 strain resistant to chloroquine, mean ± SD of three independent experiments
Experimental: as §2, §3

Row | SMILES | Viability CCRF-CEM [1] [% control] | Viability HepG2 [2] [% control] | Viability HL-60 [3] [% control] | Viability NHDF [4] [% control] | Viability HeLa [5] [% control] | IC50 [6] [µM] | IC50 [7] [µM]
1 | CCOC(=O)[C@H](Cc1ccccc1)NP(=O)(CCOCC(OCCO)n1cnc2c(=O)[nH]cnc21)N[C@@H](Cc1ccccc1)C(=O)OCC (some centres unmarked) [21c, Bis‐(L‐phenylalaninate ethyl ester) prodrug of (2‐(2‐(2‐hydroxyethoxy)‐2‐(hypoxanthin‐9‐yl)ethoxy)ethyl) phosphonic acid] | 100 ± 2 | 97 ± 2 | 104 ± 2 | 102 ± 6 | 97 ± 2 | 41 ± 5 | 14 ± 2
2 | CCOC(=O)[C@H](Cc1ccccc1)NP(=O)(CCOCC(OCCO)n1cnc2c(=O)[nH]c(N)nc21)N[C@@H](Cc1ccccc1)C(=O)OCC (some centres unmarked) [21d, Bis‐(L‐phenylalaninate ethyl ester) prodrug of (2‐(2‐(guanin‐9‐yl)‐2‐(2‐hydroxyethoxy)ethoxy)ethyl) phosphonic acid] | 99 ± 4 | 107 ± 2 | 105 ± 1 | 112 ± 1 | 100 ± 2 | 64 ± 6 | 39 ± 5
3 | CCOC(=O)[C@H](Cc1ccccc1)NP(=O)(COCCC(OCCCO)n1cnc2c(=O)[nH]cnc21)N[C@@H](Cc1ccccc1)C(=O)OCC (some centres unmarked) [21e, Bis‐(L‐phenylalaninate ethyl ester) prodrug of ((3‐(3‐hydroxypropoxy)‐3‐(hypoxanthin‐9‐yl)propoxy)methyl) phosphonic acid] | 105 ± 2 | 106 ± 3 | 110 ± 1 | 110 ± 7 | 105 ± 1 | 14 ± 2 | 41 ± 5
4 | CCOC(=O)[C@H](Cc1ccccc1)NP(=O)(COCCC(OCCCO)n1cnc2c(=O)[nH]c(N)nc21)N[C@@H](Cc1ccccc1)C(=O)OCC (some centres unmarked) [21f, Bis‐(L‐phenylalaninate ethyl ester) prodrug of ((3‐(3‐hydroxypropoxy)‐3‐(guanin‐9‐yl)propoxy)methyl) phosphonic acid] | 103 ± 1 | 110 ± 2 | 105 ± 2 | 116 ± 4 | 106 ± 1 | 13 ± 2 | 26 ± 14
5 | CCOC(=O)[C@H](Cc1ccccc1)NP(=O)(COCCC(OCCCO)n1ncc2c(=O)[nH]cnc21)N[C@@H](Cc1ccccc1)C(=O)OCC (some centres unmarked) [21g, Bis‐(L‐phenylalaninateethyl ester) prodrug of ((3‐(3‐hydroxypropoxy)‐3‐(4‐oxo‐4,5‐dihydro‐1H‐pyrazolo[3,4‐d]pyrimidin‐1‐yl)propoxy)methyl) phosphonic acid] | 105 ± 2 | 111 ± 6 | 107 ± 2 | 114 ± 3 | 106 ± 2 | 11 ± 1 | 15 ± 2
